Data set [1] has as its system EGFR T790M. Set-up: method as in Cross et al., 2014. The note with it: ref Cross et al., 2014; cited from earlier work.
Details of data set [2]: method as in earlier work. To be noted: main metabolites of osimertinib, ref Cheng et al., 2016, Dickinson et al., Vishwanathan et al., 2019; cited from earlier work.
In data set [3] the test system is A431 (EGFR^WT). Kind of data set: Cell proliferation assay (CTG, 72 h). The class given is cell-based. To be noted: Homo sapiens, A-431, A431 cells, mean ± SD, n = 3. On the procedure:
(§1) Human lung cancer cell lines (NCI-H1975, H3255 and A431) were obtained from the American Type Culture Collection (ATCC), while PC-9 cell line was supplied by the European Collection of Authenticated Cell Cultures (ECACC). For in vivo implantation, NCI-H1975, H3255 and PC-9 cells were cultured in RPMI1640 (Invitrogen) supplemented with 10% v/v fetal calf serum (Sigma-Aldrich) and 2 mmol/L L-glutamine (Invitrogen). A431 cells were cultured in DMEM (Invitrogen) supplemented with 10% v/v fetal calf serum and 2 mmol/L v/v L-glutamine. All cell lines were then cultured in a humidified incubator with 5% CO2 at 37°C.
(§2) Test compounds were dissolved in DMSO as a 10 mmol/L stock solution. The initial concentration of compounds were 10 μmol/L and the 3-fold dilution was nine times. […] Plate was shaked for 2 min and the mixture was incubated at room temperature for 10 min.
(§3) The half-maximal inhibition concentration (IC50) values were processed by GraphPad Prism7 (GraphPad Software; La Jolla, CA).

Data set [4] relates to NCI-H1975 (EGFR^L858R/T790M). The data set is described as follows: Cell proliferation assay (CTG, 72 h). The class given is cell-based. The note with it: Homo sapiens, NCI-H1975 cells, mean ± SD, n = 3. On the procedure: as §1, §2, §3
In data set [5] the test system is H3255 (EGFR^L858R). The data set is described as follows: Cell proliferation assay (CTG, 72 h). The class given is cell-based, human. To be noted: Homo sapiens, NCI-H3255; H3255 cells, 72 h; mean ± SD, n = 3. On the procedure: as §1, §2, §3
The test system of data set [6] is PC-9 (EGFR^d746–750). The data set is described as follows: Cell proliferation assay (CTG, 72 h). The class given is cell-based, human. To be noted: Homo sapiens; PC-9 cells, 72 h; mean ± SD, n = 3. The method, then: as §1, §2, §3
For data set [7], the system named is NSCLC patients. To be noted: cited from earlier work.
Data set [8] has as its system A431 (wild-type EGFR) tumor xenografts. Kind of data set: A431 xenograft model. The note with it: 30 mg/kg. The class given is in vivo, Nu/Nu nude mice. The method, then: The female Nu/Nu nude mice were purchased from Beijing Vital River Laboratories. […] Nu/Nu nude mice were purchased from the Beijing Vital River Laboratories of China. The 6–8 weeks old female mice were inoculated subcutaneously at the right flank with approximately 3–5 × 10^6 tumor cells in 0.2 ml of medium. The treatments were started when the tumor size reached approximately 200 mm^3. […] All mice were orally administrated once daily for consecutive 14 days. Mouse body weight, tumor weight and tumor volume (TV) were measured twice per week. TV was then used for the calculation of tumor inhibitory rate and tumor regression rate.

The mark [9] stands for this setting: NSCLC patients with EGFR T790M mutation, ref Jänne et al., 2015, Mok et al., 2017.

Read-outs that look alike come from different tables or passages of the source.

In the case of `C=CC(=O)Nc1cc(Nc2nccc(-c3c[nH]c4ccccc34)n2)c(OC)cc1N(C)CCN(C)C` [AZ5104], in data set [1], the “fold more active on EGFR T790M than osimertinib” value was 8 fold. The “metabolite level relative to the parent drug” value in data set [2] is given as “about 10%”.
As for `C=CC(=O)Nc1cc(Nc2nccc(-c3cn(C)c4ccccc34)n2)c(OC)cc1N(C)CCNC` [AZ7550], the “metabolite level relative to the parent drug” value in data set [2] is recorded as “about 10%”.
Take `C=CC(=O)Nc1cc(Nc2nccc(-c3cn(C)c4ccccc34)n2)c(OC)cc1N(C)CCN(C)C` [Osimertinib]: the concentration for half-maximal inhibition (IC50) in data set [3] is […]; in data set [4], […]; in data set [5] it was 17.8 ± 0.5 nM; in data set [6], 14.2 ± 1.63 nM. The ORR in data set [7] (setting [9]) is recorded as 70%; in data set [7] (second-line, locally advanced or metastatic NSCLC progressed on prior EGFR TKI, ref Goss et al., 2016, Mok et al., 2017), 70%. The “median PFS” value in data set [7] (setting [9]) is reported as 9.9 months. Also, the “efficacy compared to the first-line EGFR TKIs” value in data set [7] (advanced NSCLC patients with EGFR mutations, comparator 10.2 months, ref Soria et al., 2018, Ramalingam et al., 2020) is on record as 18.9 months. In data set [7] (advanced NSCLC patients with EGFR mutations, comparator group 31.8 months, ref Soria et al., 2018, Ramalingam et al., 2020), the overall survival is 38.6 months.
Take `CN(C)C/C=C/C(=O)Nc1cc2c(Nc3ccc(F)c(Cl)c3)ncnc2cc1O[C@H]1CCOC1` [afatinib, reference compound]: the body weight entry in data set [8] is reported as “severe body loss”.
